According to patent US20220125052A1, “Herbicidal Compositions” (SYNGENTA CROP PROTECTION AG, priority 2019, published 2022):

Legend:
Test in all cases: Post-emergence efficacy (B1), glasshouse spray test
Assay type in all cases: in vivo
Lolium perenne (LOLPE) = settings: evaluated after 13 days, 100=total damage to plant, 0=no damage to plant
Method: (§1) B1 Post-emergence efficacy Seeds of a variety of test species were sown in standard laom-based soil in pots:—Ipomoea hederacea (IPOHE), Euphorbia heterophylla (EPHHL), Chenopodium album (CHEAL), Amaranthus palmeri (AMAPA), Lolium perenne (LOLPE), Digitaria sanguinalis (DIGSA), Eleusine indica (ELEIN), Echinochloa crus-galli (ECHCG), Setaria faberi (SETFA). After cultivation for 14 days (post-emergence) under controlled conditions in a glasshouse (at 24/16° C., day/night; 14 hours light; 65% humidity), the plants were sprayed with an aqueous spray solution derived from the dissolution of the technical active ingredient Formula (I) in a small amount of acetone and a special solvent and emulsifier mixture referred to as IF50 (11.12% Emulsogen EL360 TM+44.44% N-methylpyrrolidone+44.44% Dowanol DPM glycol ether), to create a 50 g/l solution which was then diluted to required concentration using 0.25% or 1% Empicol ESC70 (Sodium lauryl ether sulphate)+1% ammonium sulphate as diluent. The delivery of the aqueous spray solution was via a laboratory track sprayer which delivered the aqueous spray composition at a rate of 200 litres per hectare, using a flat fan nozzle (Teejet 11002VS) and an application volume of 200 litre/ha (at 2 bar). The test plants were then grown in a glasshouse under controlled conditions (at 24/16° C., day/night; 14 hours light; 65% humidity) and watered twice daily. After 13 days the test was evaluated (100=total damage to plant; 0=no damage to plant).

[1] = system: Euphorbia heterophylla (EPHHL); settings: 500 g/Ha, evaluated after 13 days, 100=total damage to plant, 0=no damage to plant
Method: as §1

[2] = system: Echinochloa crus-galli (ECHCG); settings: 500 g/Ha, evaluated after 13 days, 100=total damage to plant, 0=no damage to plant
Method: as §1

Eleusine indica (ELEIN) = settings: 500 g/Ha, evaluated after 13 days, 100=total damage to plant, 0=no damage to plant
Method: as §1

Setaria faberi (SETFA) = settings: 500 g/Ha, evaluated after 13 days, 100=total damage to plant, 0=no damage to plant
Method: as §1

[3] = system: Digitaria sanguinalis (DIGSA); settings: 500 g/Ha, evaluated after 13 days, 100=total damage to plant, 0=no damage to plant
Method: as §1

[4] = system: Chenopodium album (CHEAL); settings: 500 g/Ha, evaluated after 13 days, 100=total damage to plant, 0=no damage to plant
Method: as §1

[5] = system: Amaranthus palmeri (AMAPA); settings: 500 g/Ha, evaluated after 13 days, 100=total damage to plant, 0=no damage to plant
Method: as §1

Row | SMILES | Control of weed species after post-emergence application: LOLPE (Lolium perenne (LOLPE); 500 g/Ha) | Control of weed species after post-emergence application: EPHHL [1] | Control of weed species after post-emergence application: ECHCG [2] | Control of weed species after post-emergence application: ELEIN (Eleusine indica (ELEIN)) | Control of weed species after post-emergence application: SETFA (Setaria faberi (SETFA)) | Control of weed species after post-emergence application: DIGSA [3] | pest or weed control at 500 g/ha (Lolium perenne (LOLPE); Lolium perenne, 312 h, read-out: Control of weed species after post-emergence application: LOLPE) | Control of weed species after post-emergence application: CHEAL [4] | Control of weed species after post-emergence application: AMAPA [5]
1 | O=C(O)CC[n+]1ccc(-c2ncccn2)cn1.[Cl-] [Compound 1.010, 3-(4-pyrimidin-2-ylpyridazin-1-ium-1-yl)propanoic acid chloride] | 90 | – | – | – | – | – | – | – | –
2 | O=C(O)CC[n+]1ccc(-c2ncccn2)cn1.[Br-] [Compound 1.021, 3-(4-pyrimidin-2-ylpyridazin-1-ium-1-yl)propanoic acid bromide] | – | 100 | 100 | 100 | 100 | 100 | – | – | –
3 | O=C(O)CC[n+]1ccc(-c2ncccn2)cn1 [Compound 1.023, 3-(4-pyrimidin-2-ylpyridazin-1-ium-1-yl)propanoic acid 2,2,2-trifluoroacetate] | – | – | – | – | – | – | 90% | – | –
4 | O=C(O)CC[n+]1ccc(-c2cccnn2)cn1.[Cl-] [Compound 1.027, 3-(4-pyridazin-3-ylpyridazin-1-ium-1-yl)propanoic acid chloride] | – | 100 | 100 | – | 100 | 100 | – | 100 | 100
5 | Cl.N[C@@H](CCC[n+]1ccc(-c2ncccn2)cn1)C(=O)O.[Cl-] [Compound 1.030, [(1S)-1-carboxy-4-(4-pyrimidin-2-ylpyridazin-1-ium-1-yl)butyl]-ammonium dichloride] | – | – | 100 | – | 100 | 100 | – | – | –
